Laboratory results: EP4741383A1, “COMPOUND AND USE THEREOF AS ANTI-CANCER DRUG” (Tyligand Bioscience (Shanghai) Limited, priority 2023, dated 2025)

System: MeWo
Test: CellTiter-Glo cell proliferation inhibition, MeWo
Format: cell-based, human
Conditions: Homo sapiens, MeWo, 72 h, MeWo cells, CellTiter-Glo
Description: (§1) In this study, the CellTiter-Glo® Luminescent Cell Viability Assay kit from Promega was used to evaluate the inhibitory effects of the disclosed compounds on the proliferation of cell lines KYSE520 (a human esophageal squamous cell carcinoma cell line dependent on SHP2 for growth), MeWo (a human malignant melanoma cell line), and MV4-11 (an RTK-mutant human acute monocytic leukemia cell line).
Using essentially the same experimental materials, MeWo cells (ATCC, catalog #HTB-65) were treated similarly: when thawing the cells, the cryovial was rapidly shaken in a 37 °C water bath to thaw the cells within 1 minute. The thawed cell suspension was mixed with MEM/EBSS culture medium containing 10% FBS (HyClone, catalog #SH30024.01), centrifuged at 1000 rpm for 5 minutes, and the supernatant was discarded. The cell pellet was resuspended in 5 mL of complete culture medium (MEM/EBSS medium containing 10% FBS), placed in a cell culture flask with 25 cm^2 of bottom area, and cultured in a cell culture incubator at 37 °C, 95% humidity, and 5% CO2. Cell passaging was performed when the cell confluence reached approximately 80%. During cell passaging, the old culture medium was discarded, the cells were washed once with DPBS, and 1 mL of trypsin was added to digest the cells. When the cells dispersed into single cells and detached from the bottom of the cell culture flask, 3 mL of new complete culture medium was added to stop the digestion. After thoroughly mixing the cell suspension, 1/5 of the cell suspension was retained, 5 mL of new complete culture medium was added, and after thorough mixing, the cells were placed in a cell culture flask for further culture. Cell plating was performed when the cell confluence again reached approximately 80%. During cell plating, following the cell passaging method, 1/5 of the cell suspension was retained for further culture, and the remaining 4/5 of the cell suspension was placed in a 15 mL centrifuge tube. Cell viability was determined using the trypan blue exclusion method to ensure that cell viability was above 90%. A cell suspension with a density of 2.22 × 10^4 cells/mL was prepared using MEM/EBSS culture medium containing 5% FBS. 90 µL of the cell suspension was added to a 96-well cell culture plate, resulting in a cell density of 2000 viable cells/well in the cell culture plate. A control group without cells and without compounds, containing only complete culture medium (i.e., culture medium control), and a control group without compounds but containing cells (i.e., cell control) were set up. The cell plate was cultured overnight in the cell culture incubator. First, a 10 mM stock solution of the compound (Example compound and positive control compound 11a-1) in DMSO was serially diluted with DMSO at a 3-fold dilution, down to the 9th concentration. A 10th concentration containing only DMSO (without the compound) was also prepared as a control. Then, the DMSO solutions containing different concentrations of the compound were diluted 100-fold with complete culture medium, resulting in a 1% DMSO concentration in each solution. Finally, 10 µL of each solution was added to the corresponding wells of the cell culture plate, resulting in a starting compound concentration of 10 µM, with a 3-fold dilution between adjacent concentrations, and a 0.1% DMSO concentration in the cell culture plate. The cell plates were then incubated in a cell culture incubator for 72 hours.
(§2) For endpoint detection, CellTiter-Glo reagent (Promega, catalog number #G7573, CellTiter-Glo® Luminescent Cell Viability Assay Kit) was melt and each cell plate was moved to room temperature for equilibration for 30 minutes. 75 µL (KYSE520 cells) or 50 µL (MeWo cells and MV 4-11 cells) of CellTiter-Glo was added to each well of the corresponding cell plate. The plates were shaken on a track-mounted shaker for 2 minutes to fully lyse the cells. The cell plates were kept at room temperature for 8 minutes to stabilize the luminescence signal. […]

Row | Structure (SMILES) | IC50
1 | O=C(Nc1ccc(-c2csc(CO)c2)cc1)C(=O)Nc1ccc(-c2cc3cc(F)c(-c4nnn[nH]4)cc3n2C2CCC2)cc1 [Example 1] | 0.032 µM
2 | CC1(n2c(-c3ccc(NC(=O)C(=O)Nc4ccc(-c5cnn(C6COC6)c5)cc4)cc3)cc3cc(F)c(-c4nnn[nH]4)cc32)CC1 [Example 6] | 0.113 µM
3 | CC1(n2c(-c3ccc(NC(=O)C(=O)Nc4ccc(-c5cnn(C6CCOCC6)c5)cc4)cc3)cc3cc(F)c(-c4nnn[nH]4)cc32)CC1 [Example 7] | 0.111 µM
4 | Cn1c(-c2cccc(NC(=O)C(=O)Nc3ccc(-c4ccsc4)cc3)c2)c(I)c2cc(C(=O)O)c(O)cc21 [Example 11a-1, reference compound] | 3.1 µM
5 | O=C(Nc1ccc(-c2cc3cc(F)c(-c4nnn[nH]4)cc3n2C2CCC2)cc1)C(=O)Nc1ccc(N2CCC(CO)C2)cc1 (stereo not shown) [Example 12] | 0.082 µM
6 | O=C(Nc1ccc(-c2cc3cc(F)c(-c4nnn[nH]4)cc3n2C2CC2)cc1)C(=O)Nc1ccc(N2CCC3(CCOC3)CC2)cc1 [Example 69] | 0.093 µM
7 | O=C(Nc1ccc(-c2ccsc2)cc1)C(=O)Nc1ccc(-c2cc3ccc(-c4nnn[nH]4)cc3n2C2CCC2)cc1 [Example 122] | 0.409 µM
8 | Cn1cc(-c2ccc(NC(=O)C(=O)Nc3ccc(-c4cc5cc(F)c(-c6noc(=O)[nH]6)cc5n4C4CCC4)cc3)cc2)cn1 [Example 123] | 0.118 µM
9 | Cn1cc(-c2ccc(NC(=O)C(=O)Nc3ccc(-c4cc5cc(F)c(-c6nnc(C(F)(F)F)[nH]6)cc5n4C4CCC4)cc3)cc2)cn1 [Example 124] | 1.55 µM
10 | O=C(Nc1ccc(-c2ccsc2)cc1)C(=O)Nc1ccc(-c2oc3cc(F)c(-c4nnn[nH]4)cc3c2C2CCC2)cc1 [Example 130] | 0.162 µM
11 | O=C(Nc1ccc(-c2ccsc2)cc1)C(=O)Nc1ccc(-c2cc3cc(F)c(-c4nnn[nH]4)nc3n2C2CCC2)cc1 [Example 132] | 0.291 µM
12 | O=C(Nc1ccc(-c2ccsc2)cc1)C(=O)Nc1ccc(-c2sc3cc(F)c(-c4nnn[nH]4)cc3c2C2CCC2)cc1 [Example 133] | 0.686 µM

Same assay, conditions: Homo sapiens; MeWo cells, 72 hours, CellTiter-Glo

Row | Structure (SMILES) | IC50
13 | O=C(Nc1ccc(-c2oc3cc(F)c(-c4nnn[nH]4)cc3c2C2CCC2)cc1)C(=O)Nc1ccc(N2CCC3(CCOC3)CC2)cc1 [Example 125] | 0.764 µM
14 | O=C(Nc1ccc(-c2ccsc2)cc1)C(=O)Nc1ccc(-c2cc3ccc(-c4nnn[nH]4)nc3n2C2CCC2)cc1 [Example 129] | 0.176 µM
15 | O=C(Nc1ccc(-c2ccsc2)cc1)C(=O)Nc1ccc(-c2cc3cc(F)c(-c4nnn[nH]4)c(F)c3n2C2CCC2)cc1 [Example 134] | 0.27 µM

System: MV4-11
Test: CellTiter-Glo cell proliferation inhibition, MV4-11
Format: cell-based, human
Conditions: Homo sapiens; MV4-11 cells, 72 hours, CellTiter-Glo; read-out: IC50 (µM) M V4-11
Excerpt: as §1
Using essentially the same experimental materials, MV4-11 cells (Nanjing Cobio Biotechnology Co., Ltd., Catalog #CBP60522) were treated similarly: when thawing the cells, the cryovial was rapidly shaken in a 37 °C water bath to thaw within 1 minute. The thawed cell suspension was mixed with IMDM culture medium containing 10% FBS (HyClone, Catalog #SH30228.01), centrifuged at 1000 rpm for 7 minutes, and the supernatant was discarded. The cell pellet was resuspended in 5 mL of complete culture medium (IMDM medium containing 10% FBS) placed in a cell culture flask with 25 cm^2 of bottom area, and cultured in a cell culture incubator at 37 °C, 95% humidity, and 5% CO2. Cell passaging was performed when the cell density reached approximately 10^6 cells/mL. During cell passaging, the old cell suspension was thoroughly mixed, 1/5 of the cell suspension was retained, and 4 mL of new complete culture medium was added. After thorough mixing, the cells were placed back in the cell culture incubator for further culture. Cell plating was performed when the cell density again reached approximately 10^6 cells/mL. During cell plating, following the cell passage method, 1/5 of the cell suspension was retained for continued culture, and the remaining 4/5 of the cell suspension was placed in a 15 mL centrifuge tube. Cell viability was determined using the trypan blue exclusion method to ensure that cell viability was above 90%. A cell suspension with a density of 1.11 × 10^5 viable cells/mL was prepared using complete culture medium. 90 µL of the cell suspension was added to a 96-well cell culture plate, resulting in a cell density of 10000 viable cells/well. A control group without cells and without compounds, containing only complete culture medium (i.e., culture medium control) and a control group without compounds but containing cells (i.e., cell control) were set up. The cell plate was incubated overnight in the cell culture incubator. First, a 10 mM stock solution of the compound (Example compound and positive control compound 11a-1) in DMSO was serially diluted with DMSO at a 3-fold dilution, down to the 9th concentrations. A 10th concentration containing only DMSO (without the compound) was also prepared as a control. Then, the DMSO solutions containing different concentrations of the compound were diluted 100-fold with complete culture medium, resulting in a DMSO concentration of 1% in each solution. Finally, 10 µL of each solution was added to the corresponding wells of a cell culture plate, resulting in an initial compound concentration of 10 µM, with a 3-fold dilution between adjacent concentrations, and a DMSO concentration of 0.1% in the cell culture plate. The cell plate was then incubated in a cell culture incubator for 72 hours.
as §2, with “signal. A multi-mode microplate reader (PerkinEImer, Envision 2105 Multimode plate Read) was used to full-wavelength scan the luminescence value of each well.” for “signal.”

Row | Structure (SMILES) | IC50
16 | O=C(Nc1ccc(-c2csc(CO)c2)cc1)C(=O)Nc1ccc(-c2cc3cc(F)c(-c4nnn[nH]4)cc3n2C2CCC2)cc1 [Example 1] | 0.097 µM
17 | N#CCc1cc(-c2ccc(NC(=O)C(=O)Nc3ccc(-c4cc5cc(F)c(-c6nnn[nH]6)cc5n4C4CCC4)cc3)cc2)cs1 [Example 2] | 0.216 µM
18 | CC1(n2c(-c3ccc(NC(=O)C(=O)Nc4ccc(-c5cnn(C6COC6)c5)cc4)cc3)cc3cc(F)c(-c4nnn[nH]4)cc32)CC1 [Example 6] | 0.358 µM
19 | CC1(n2c(-c3ccc(NC(=O)C(=O)Nc4ccc(-c5cnn(C6CCOCC6)c5)cc4)cc3)cc3cc(F)c(-c4nnn[nH]4)cc32)CC1 [Example 7] | 0.254 µM
20 | Cn1c(-c2cccc(NC(=O)C(=O)Nc3ccc(-c4ccsc4)cc3)c2)c(I)c2cc(C(=O)O)c(O)cc21 [Example 11a-1, reference compound] | 5.13 µM
21 | O=C(Nc1ccc(-c2cc3cc(F)c(-c4nnn[nH]4)cc3n2C2CCC2)cc1)C(=O)Nc1ccc(N2CCC(CO)C2)cc1 (stereo not shown) [Example 12] | 0.262 µM
22 | O=C(Nc1ccc(-c2cc3cc(F)c(-c4nnn[nH]4)cc3n2C2CCC2)cc1)C(=O)Nc1ccc(N2CCC(CCO)C2)cc1 (stereo not shown) [Example 14] | 0.155 µM
23 | CC1(CO)CCN(c2ccc(NC(=O)C(=O)Nc3ccc(-c4cc5cc(F)c(-c6nnn[nH]6)cc5n4C4CCC4)cc3)cc2)C1 (stereo not shown) [Example 16] | 0.137 µM
24 | CC1(n2c(-c3ccc(NC(=O)C(=O)Nc4ccc(N5CCC(CCO)CC5)cc4)cc3)cc3cc(F)c(-c4nnn[nH]4)cc32)CCC1 [Example 26] | 0.129 µM
25 | CC(O)C1CCN(c2ccc(NC(=O)C(=O)Nc3ccc(-c4cc5cc(F)c(-c6nnn[nH]6)cc5n4C4CCC4)cc3)cc2)CC1 (stereo not shown) [Example 29] | 0.13 µM
26 | O=C(Nc1ccc(-c2cc3cc(F)c(-c4nnn[nH]4)cc3n2C2CCC2)cc1)C(=O)Nc1ccc(N2CC3(CCCOC3)C2)cc1 [Example 55] | 0.177 µM
27 | O=C(Nc1ccc(-c2cc3cc(F)c(-c4nnn[nH]4)cc3n2C2CCC2)cc1)C(=O)Nc1ccc(N2CCC3(COC3)C2)cc1 [Example 59] | 0.213 µM
28 | O=C(Nc1ccc(-c2cc3cc(F)c(-c4nnn[nH]4)cc3n2C2CCC2)cc1)C(=O)Nc1ccc(N2CCC3(CCCOC3)C2)cc1 (stereo not shown) [Example 62] | 0.202 µM
29 | O=C(Nc1ccc(-c2cc3cc(F)c(-c4nnn[nH]4)cc3n2C2CCC2)cc1)C(=O)Nc1ccc(N2CCC3(CCCOC3)CC2)cc1 [Example 74] | 0.129 µM
30 | CC1(O)CCC2(CC1)CN(c1ccc(NC(=O)C(=O)Nc3ccc(-c4cc5cc(F)c(-c6nnn[nH]6)cc5n4C4CCC4)cc3)cc1)C2 [Example 83] | 0.133 µM
31 | CC1(O)CC2(CCN(c3ccc(NC(=O)C(=O)Nc4ccc(-c5cc6cc(F)c(-c7nnn[nH]7)cc6n5C5(C)CCC5)cc4)cc3)CC2)C1 [Example 95] | 0.168 µM
32 | CC1(n2c(-c3ccc(NC(=O)C(=O)Nc4ccc(N5CCC6(CCC(O)C6)CC5)cc4)cc3)cc3cc(F)c(-c4nnn[nH]4)cc32)CCC1 (stereo not shown) [Example 101] | 0.329 µM
33 | COC1CC(n2c(-c3ccc(NC(=O)C(=O)Nc4ccc(N5CCC6(CCC(O)C6)CC5)cc4)cc3)cc3cc(F)c(-c4nnn[nH]4)cc32)C1 (stereo not shown) [Example 103] | 0.124 µM
34 | CC1(n2c(-c3ccc(NC(=O)C(=O)Nc4ccc(N5CCC6(CCC(O)CC6)CC5)cc4)cc3)cc3cc(F)c(-c4nnn[nH]4)cc32)CCC1 [Example 109] | 0.243 µM
35 | CC1(O)CCC2(CCN(c3ccc(NC(=O)C(=O)Nc4ccc(-c5cc6cc(F)c(-c7nnn[nH]7)cc6n5C5(C)CCC5)cc4)cc3)CC2)CC1 [Example 111] | 0.122 µM
36 | CC1(O)CC2CN(c3ccc(NC(=O)C(=O)Nc4ccc(-c5cc6cc(F)c(-c7nnn[nH]7)cc6n5C5CCC5)cc4)cc3)CC2C1 (stereo not shown) [Example 117] | 0.127 µM
37 | CC1(O)CC2CN(c3ccc(NC(=O)C(=O)Nc4ccc(-c5cc6cc(F)c(-c7nnn[nH]7)cc6n5C5(C)CCC5)cc4)cc3)CC2C1 (stereo not shown) [Example 118] | 0.131 µM
